The values below come from US7935724B2, “Thiophene and benzothiophene hydroxamic acid derivatives” (Merck HDAC Research, LLC, priority 2003, dated 2011).

The structures appear in SMILES notation.

In the first assay the test system is murine erythroleukemia cell line SC9. The experiment in a line: MTS assay (Cell Titer 96 Aqueous One Solution Cell Proliferation Assay). Format: cell-based. Conditions: Mus musculus, SC9, 48 h, Table 3, concentration inhibiting proliferation of SC9 cells, unit inferred, unit nm. The method, then: The novel compounds of the present invention were tested for their ability to inhibit proliferation of the murine erythroleukemia cell line SC9.
The MTS assay, also referred to as the Cell Titer 96 Aqueous One Solution Cell Proliferation Assay, is a calorimetric method for determining the number of viable cells in proliferation, cytotoxicity or chemosensitivity assays. The MTS reagent contains a novel tetrazolium compound [3-(4,5-dimethylthiazol-2-yl)-5-(3-carboxymethoxyphenyl)-2-(4-sulfophenyl)-2H-tetrazolium, inner salt] and electron coupling reagent (phenazine ethosulfate;PES). Murine erythroleukemia cells (SC-9) were incubated with vehicle or increasing concentrations of compound for 48 hours. Cell proliferation was quantitated by adding a small amount of the MTS reagent directly to culture wells, incubating for 1-4 hours and then recording the absorbance at 490 nm with a 96-well plate reader. The quantity of formazan product, as measured by […] absorbance, is directly proportional to the number of living cells in culture.
In general terms: Formazan colour is commonly taken as a measure of viable cells.
As to `O=C(NO)c1cc2cc(CNCCC(c3ccccc3)c3ccccc3)ccc2s1` [Compound 155], the IC50 turned out to be 390 nM.
In turn, `O=C(NO)c1cc2ccc(NC(=O)c3cccc4ccccc34)cc2s1` [Compound 33] displayed an IC50 of 785 nM.
The same measure, in the same setting: then `CN(C(=O)Cc1ccccc1)c1ccc2cc(C(=O)NO)sc2c1` [Compound 106], with 537 ± 124 nM; and `O=C(Nc1ccc2sc(C(=O)NO)cc2c1)OCc1ccccc1` [Compound 36], with 717 nM; and `O=C(CN1CCC(Cc2ccccc2)CC1)Nc1ccc2cc(C(=O)NO)sc2c1` [Compound 90], with 704 ± 96.1 nM.
The compound `O=C(NO)c1cc2cc(CNC3CCN(Cc4ccccc4)CC3)ccc2s1` [Compound 146] displayed an IC50 of 891 nM.
Same read-out and setting: to `COc1ccc(CNCc2ccc3cc(C(=O)NO)sc3c2)cc1` [Compound 187] belongs 56 nM; to `O=C(NO)c1cc2cc(CNCC3CCCCC3)ccc2s1` [Compound 164], 545 ± 24 nM.
Regarding `COc1cccc(CNCc2ccc3sc(C(=O)NO)cc3c2)c1` [Compound 148], the IC50 turned out to be 430 ± 132 nM.
As to `O=C(CN1CCN(c2ccccn2)CC1)Nc1ccc2cc(C(=O)NO)sc2c1` [Compound 108], the IC50 amounted to 442 nM.
In turn, `O=C(NO)c1cc2ccc(NC(=O)C(c3ccccc3)c3ccccc3)cc2s1` [Compound 28] showed an IC50 of 696 nM.
Still for that read-out and setting: then `COc1cccc(N2CCN(CC(=O)Nc3ccc4cc(C(=O)NO)sc4c3)CC2)c1` [Compound 100], with 519 ± 65.7 nM; and `COc1ccccc1CNCc1ccc2cc(C(=O)NO)sc2c1` [Compound 185], with 90 nM.
Still for that read-out and setting: then `COc1ccccc1CNCc1ccc2sc(C(=O)NO)cc2c1` [Compound 147], with 201 ± 59.3 nM; and `CC(C)(C(=O)Nc1ccc2cc(C(=O)NO)sc2c1)c1ccccc1` [Compound 189], with 493 nM; and `O=C(NO)c1cc2cc(CNCc3ccccc3)ccc2s1` [Compound 99], with 474 ± 65.7 nM.
The same measure, in the same setting: then `COc1ccccc1N1CCN(CC(=O)Nc2ccc3cc(C(=O)NO)sc3c2)CC1` [Compound 107], with 309 nM.

For another assay, the target named is T1, histone deacetylase, subtype 1 (HDAC1) (Homo sapiens, UniProt Q13547).
T1 construct: Flag; made in house
T1 sequence (Q13547 whole entry): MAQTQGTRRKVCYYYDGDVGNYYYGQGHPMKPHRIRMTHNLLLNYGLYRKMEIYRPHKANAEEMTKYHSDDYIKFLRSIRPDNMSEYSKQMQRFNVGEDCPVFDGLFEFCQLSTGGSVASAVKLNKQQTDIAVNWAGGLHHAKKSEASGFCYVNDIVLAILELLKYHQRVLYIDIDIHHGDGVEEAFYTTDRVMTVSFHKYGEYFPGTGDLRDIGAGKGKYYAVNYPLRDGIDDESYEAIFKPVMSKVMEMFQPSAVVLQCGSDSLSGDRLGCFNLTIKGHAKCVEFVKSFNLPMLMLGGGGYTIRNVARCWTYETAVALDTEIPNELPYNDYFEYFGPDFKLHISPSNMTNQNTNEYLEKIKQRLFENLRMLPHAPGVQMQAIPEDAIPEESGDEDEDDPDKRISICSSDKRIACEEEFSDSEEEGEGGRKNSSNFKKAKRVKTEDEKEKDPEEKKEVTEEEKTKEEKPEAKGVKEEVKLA
Put plainly: HDAC1-Flag assay (in vitro deacetylation assay). Format: biochemical. Conditions: Table 1, benzothiophene backbone; concentration for 50% inhibition of deacetylation; substrate at Km; unit inferred, text gives nm; read-out: HDAC Inhibition. Summed up:
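Enzyme: Flag epitope-tagged human HDAC1 complex immunopurified from stably expressing mammalian cells. Substrate carries an acetylated lysine side chain; deacetylation yields a fluorophore proportional to activity, measured as fluorescence.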
As for `O=C(NO)c1cc2cc(CNCCC(c3ccccc3)c3ccccc3)ccc2s1` [Compound 155], the IC50 amounted to 967 ± 215 nM.
The same measure, in the same setting: then `O=C(NO)c1cc2ccc(NC(=O)c3cccc4ccccc34)cc2s1` [Compound 33], with 79 ± 11.3 nM; and `CN(C(=O)Cc1ccccc1)c1ccc2cc(C(=O)NO)sc2c1` [Compound 106], with 74.5 ± 17.6 nM.
The same measure, in the same setting: then `O=C(Nc1ccc2sc(C(=O)NO)cc2c1)OCc1ccccc1` [Compound 36], with 119 nM.
Still for that read-out and setting: then `O=C(CN1CCC(Cc2ccccc2)CC1)Nc1ccc2cc(C(=O)NO)sc2c1` [Compound 90], with 99.5 ± 37.4 nM; and `O=C(NO)c1cc2cc(CNC3CCN(Cc4ccccc4)CC3)ccc2s1` [Compound 146], with 524 ± 102 nM.
Regarding `COc1ccc(CNCc2ccc3cc(C(=O)NO)sc3c2)cc1` [Compound 187], the IC50 amounted to 23 ± 1.4 nM.
As to `O=C(NO)c1cc2cc(CNCC3CCCCC3)ccc2s1` [Compound 164], the IC50 stood at 207 ± 38.1 nM.
In the case of `COc1cccc(CNCc2ccc3sc(C(=O)NO)cc3c2)c1` [Compound 148], the IC50 worked out at 100 ± 12.7 nM.
Regarding `O=C(CN1CCN(c2ccccn2)CC1)Nc1ccc2cc(C(=O)NO)sc2c1` [Compound 108], the IC50 came to 50 ± 11.3 nM.
Same read-out and setting: to `O=C(NO)c1cc2ccc(NC(=O)C(c3ccccc3)c3ccccc3)cc2s1` [Compound 28] belongs 79.5 ± 0.7 nM; to `COc1cccc(N2CCN(CC(=O)Nc3ccc4cc(C(=O)NO)sc4c3)CC2)c1` [Compound 100], 45 ± 5.6 nM; to `COc1ccccc1CNCc1ccc2cc(C(=O)NO)sc2c1` [Compound 185], 48.5 ± 6.3 nM.
Same read-out and setting: to `COc1ccccc1CNCc1ccc2sc(C(=O)NO)cc2c1` [Compound 147] belongs 75.5 ± 7.7 nM; to `CC(C)(C(=O)Nc1ccc2cc(C(=O)NO)sc2c1)c1ccccc1` [Compound 189], 72 ± 14.1 nM; to `O=C(NO)c1cc2cc(CNCc3ccccc3)ccc2s1` [Compound 99], 144 ± 53 nM.
The same measure, in the same setting: then `COc1ccccc1N1CCN(CC(=O)Nc2ccc3cc(C(=O)NO)sc3c2)CC1` [Compound 107], with 79 ± 5.6 nM.
